Target: T1, HIV-1 RT (recombinant) (Human immunodeficiency virus type 1 group M subtype B, UniProt P04585)
T1 construct: Reverse transcriptases (RT): • MMLV-RT (MMLV or MM; source: Fermentas); • HIV-1 RT (recombinant); purchased Worthington Biochemical Corp
Assay: Primer extension assay with HIV-1 RT
Assay type: biochemical
Parameters: key to Incorporation of three 2′F-araTTP / 2′F-araCTP (incorporation efficiency) / Enzymatic activity during primer extension reactions: ++++: excellent (no pausing observed); +++: very good (with slight pausing); ++: Good, full-length products with significant pausing; +: significant pausing, no full-length product but at least one 2′F-araN incorporation detected
Conditions: for Incorporation of three 2′F-araTTP / 2′F-araCTP (incorporation efficiency) / Order of efficiency of incorporation / Enzymatic activity during primer extension reactions: 37° C.; for Incorporation of three 2′F-araTTP / 2′F-araCTP (incorporation efficiency): DNA template PF22 (2′F-araTTP) or PF24 (2′F-araCTP); for Order of efficiency of incorporation: DNA template PF22 (T/U triphosphates) or PF24 (C triphosphates), three contiguous units; for Enzymatic activity during primer extension reactions: plus dATP, dGTP
Text: Primer extension assays were used to assess the incorporation of 2′F-araNTP on the various DNA templates (Table 1). The DNA primer (PF20) was first radioactively labeled at the 5′-hydroxyl terminus with a radioactive phosphorus probe and the enzyme T4 polynucleotide kinase (T4 PNK) (see Example 1 for General Methods). To assess the incorporation of 2′F-araNTPs, the primer and template were annealed, and the nucleoside 5′-triphosphates added in the presence of enzyme under the conditions specified in Table 2. Time points were obtained by analyzing small aliquots from the reaction mixture through polyacryamide gel electrophoresis (PAGE) and autoradiography.
Primer extension assays were used to assess the incorporation efficiency of contiguous 2′F-ara(T/C)TPs compared to 2′F-r(U/C)TP on a DNA template (e.g. PF22 or PF24). To this end, a DNA template (e.g. PF22: FIGS. 15, 16, 17A, 18, 21A; PF24: FIGS. 17B, 19, 20, 21B), primer and the appropriate NTPs (e.g. combination of dATP/dCTP/dGTP/ and NTP, where N=dT, 2′F-araT, 2′F-rU, or rU (FIGS. 15, 16, 17A, 18, 21A); or combination of dATP/dGTP/dTTP/ and NTP, where N=dC, 2′F-araC, 2′F-rC, or rC (FIGS. 17B, 19, 20, 21B)), were incubated in the presence one of MMLV-RT, 9N, HIV or DV polymerase. The protocols and conditions are described in Example 2 and Table 2.
Unless otherwise noticed in the Examples described below, the conditions used in the primer extension assays, such as dNTP concentration, reaction temperatures, concentration of Mg^2+, and reaction buffers (provided by the manufacturers, except for the HIV buffer which was prepared in-house) are shown in Table 2.
Primer extension assays were used to assess the incorporation of 2′F-araTTP on the DNA template (PF22). The DNA primer (PF20) was first radioactively labeled at the 5′-hydroxyl terminus with a radioactive phosphorus probe and the enzyme T4 polynucleotide kinase (T4 PNK) according to the manufacturer's specifications (MBI Fermentas Life Sciences, Burlington, ON). Incorporation of the ^32P label was accomplished in reaction mixtures consisting of DNA substrate (200 pmol), 2 μl loxreaction buffer (Buffer A for forward reaction: 500 mM Tris-HCl, pH 7.6 at 25° C., 100 mM MgCl2, 50 mM DTT, 1 mM spermidine and 1 mM EDTA), 1 μl T4 PNK enzyme solution (10 U/1 μl in a solution of 20 mM Tris-HCl, pH 7.5, 25 mM KCl, 0.1 mM EDTA, 2 mM DTT and 50% glycerol), 6 μl [γ-^32P]-ATP solution (6000 Ci/mmol, 10 mCi/ml; Amersham Biosciences, Inc.) and autoclaved sterile water to a final volume of 20 μl. The reaction mixture was incubated for about 45-60 min at 37° C., followed by a second incubation for 10 min at 95° C. to heat denature and deactivate the kinase enzyme. The solution was purified according to a standard protocol and the isolated yield of 5′-^32P-DNA following gel extraction averages 50%. The pure labeled samples were kept at −20° C. for future use.
Usually 2 or 3 folds of cold (unlabeled) DNA primer were combined with the radioactive primer. Then primer to template was mixed together with the final concentration at 85 nM for the primer and 255 nM for the template (i.e. the primer:template=1:3 molar ratio). The primer and template were heated at 95° C. for 5 min and annealed at 4° C. for at least two hours before use. In an Eppendorf tube, the following reagents, 5× or 10× buffer, nucleoside 5′-triphosphates (DATP, dGTP, dCTP, 2′F-araTTP at the same concentrations; see legend of FIG. 2), water, the primer and template mixture, were added together according to pre-calculated reaction volume (20 μL) and concentrations (see reaction conditions in Table 2). Mineral oil (20 μL) was usually used to prevent evaporation. The reaction mixture was incubated at either 37° C. or 55° C. and one of the various enzymes tested was added to initiate the primer extension reactions. […]

SMILES | Incorporation of three 2′F-araTTP / 2′F-araCTP (incorporation efficiency) | Order of efficiency of incorporation | substrate property for HIV RT (DNA template PF22, compared to 2′F-rUTP and rUTP) | Enzymatic activity during primer extension reactions (Example 2, DNA template PF22, 3x 2′F-araTTP, dCTP) | Enzymatic activity during primer extension reactions (Example 3, DNA template PF24, 3x 2′F-araCTP, dTTP)
Cc1cn([C@@H]2O[C@H](COP(=O)(O)OP(=O)(O)OP(=O)(O)O)[C@@H](O)[C@@H]2F)c(=O)[nH]c1=O [2′F-araTTP, 1-(2-deoxy-2-fluoro-β-D-arabino-furanosyl)thymine 5′-triphosphate] | ++++ | dTTP > 2′F-araTTP > 2′F-rUTP > UTP | excellent substrate | ++++ | –
Nc1ccn([C@H]2C[C@H](O)[C@@H](COP(=O)(O)OP(=O)(O)OP(=O)(O)O)O2)c(=O)n1 [dCTP] | – | dCTP~2′F-rCTP ≧ 2′F-araCTP > CTP | – | – | –
O=c1ccn([C@@H]2O[C@H](COP(=O)(O)OP(=O)(O)OP(=O)(O)O)[C@@H](O)[C@H]2F)c(=O)[nH]1 [2′F-rUTP, 1-(2-deoxy-2-fluoro-β-D-ribo-furanosyl)uracil 5′-triphosphate, reference compound] | – | dTTP > 2′F-araTTP > 2′F-rUTP > UTP | – | – | –
Nc1ccn([C@@H]2O[C@H](COP(=O)(O)OP(=O)(O)OP(=O)(O)O)[C@@H](O)[C@@H]2F)c(=O)n1 [2′F-araCTP, 1-(2-deoxy-2-fluoro-β-D-arabinofuranosyl)cytosine 5′-triphosphate] | ++++ | dCTP~2′F-rCTP ≧ 2′F-araCTP > CTP | – | – | ++++
Cc1cn([C@H]2C[C@H](O)[C@@H](COP(=O)(O)OP(=O)(O)OP(=O)(O)O)O2)c(=O)[nH]c1=O [dTTP, reference compound] | – | dTTP > 2′F-araTTP > 2′F-rUTP > UTP | – | – | –
Nc1ccn([C@@H]2O[C@H](COP(=O)(O)OP(=O)(O)OP(=O)(O)O)[C@@H](O)[C@H]2F)c(=O)n1 [2′F-rCTP, 1-(2-deoxy-2-fluoro-β-D-ribofuranosyl) cytosine 5′-triphosphate, reference compound] | – | dCTP~2′F-rCTP ≧ 2′F-araCTP > CTP | – | – | –

Reference: patent US20090298708A1, “2'-DEOXY-2'-FLUORO-BETA-D-ARABINONUCLEOSIDE 5'-TRIPHOSPHATES AND THEIR USE IN ENZYMATIC NUCLEIC ACID SYNTHESIS” (priority 2006, published 2009)
